From US8008291B2 (Mimetica Pty Ltd, priority 2008, dated 2011)
Like-named read-outs stand apart in the source and are kept apart here.

Legend:
mouse MC5R (membrane) = target: T1, mouse MC5R (membrane) (Mus musculus, UniProt P41149); test: MC5R radioligand binding, mouse MC5R membranes
T1 construct: purchased Euroscreen

[1] = target: T2, rhesus monkey MC5R (membranes) (Macaca mulatta, UniProt A0A5F8AEA9); test: MC5R radioligand binding, rhesus monkey MC5R membranes
T2 construct: expressed in transfected cells

[2] = target: T3, rhesus monkey MC5R (whole cells) (Macaca mulatta, UniProt A0A5F8AEA9); test: MC5R radioligand binding, rhesus monkey MC5R whole cells
T3 construct: expressed in transfected cells

hMC1R = hMC1R (Homo sapiens, UniProt Q01726); test: Human MC1R radioligand binding assay; settings: hMCR binding selectivity, [125I] NDP-MSH, membranes
Experimental: (§1) • Na^125I (0.5 mCi, 17.4 Ci/mg) was added to 50 μL sodium phosphate (50 mM, pH7.4) in an eppendorf tube precoated with IODOGEN. After incubation for 10 mins the phosphate buffer containing the iodine was added to NDP-MSH (10 ul at 1 mg/mL) in a separate eppendorf tube. This was incubated for a further 10 mins. The iodinated NDP-MSH was purified by HPLC on a Zorbax SB 300 column using solvent A: 0.05% TFA and solvent B: 90% acetonitrile 0.045% TFA with a linear gradient, 0-67% B over 60 mins. […] Resuspended membranes were kept on ice until they were added to the wells of the plate. Binding Protocol for 400 microassays per vial: • Assays were performed in 96 well polypropylene plates. […] This was incubated for 1 hr at 37° C.
(§2) Radioligand binding assays were carried out using commercial or in-house prepared hMC1R, hMC3R and hMC4R membranes and [125I]
(§3) The homogenisation and ice incubation was repeated three times. The mixture was then centrifuged at 1260×g for 5 mins. […] This was centrifuged at 30,000×g for 90 mins at 4° C.

hMC4R = hMC4R (Homo sapiens, UniProt P32245); test: Human MC4R radioligand binding assay; settings: hMCR binding selectivity, [125I] NDP-MSH, membranes
Experimental: as §1, §2, §3

human MC5R (hMC5R) = target: T4, human MC5R (hMC5R) (Homo sapiens, UniProt P33032); test: Human MC5R radioligand binding assay (membranes, [125I] NDP-MSH displacement)
T4 construct: purchased Perkin Elmer RBXMC5M400UA
Outline: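 Frozen human MC5R membranes incubated with test compound and in-house iodogen-labeled, HPLC-purified [125I]NDP-MSH for 1 hr at 37° C. Binding measured as displacement of the radioligand.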

hMC3R = hMC3R (Homo sapiens, UniProt P41968); test: Human MC3R radioligand binding assay; settings: hMCR binding selectivity, [125I] NDP-MSH, membranes
Experimental: as §1, §2, §3

human MC5R [3] = target: T5, human MC5R (Homo sapiens, UniProt P33032); test: cAMP stimulation assay, agonism, HEK 293 cells expressing human MC5R; type: cell-based
T5 construct: host or cells: HEK 293
Experimental: (§4) The mammalian cell line, human embryonic kidney cells (HEK 293), were maintained in Dulbeccos Modified Eagle's medium (DMEM) with 5% fetal bovine serum (BSA), L-glutamine, high glucose and antibiotics/antimycotics. On the day prior to transfection, cells were passaged using trypsin/EDTA and seeded into 75 cm^2 flasks so that they would be approximately 90% confluent the next day. The next day, the cell media was replaced with fresh antibiotic/antimycotic-containing DMEM. Approximately 100 μl of the transfection lipid Turbofectin 8.0 (Origene Technologies, MD, USA), was diluted in 1.0 mL of serum and antibiotic/antimycotic-free OptiMEM in a sterile 15 mL tube and incubated for 5 mins at room temperature. […]
(§5) Basal level (of cAMP) control wells contained stimulation buffer only (no agonist or compounds). […] After incubation, 10 μl of lysis buffer (10% Tween 20, 1 M HEPES, 0.1% BSA, protease inhibitors, ddH2O) was added to all wells to be measured. […] 5 μl of diluted acceptor beads were added to each well to be measured, then the plate was incubated for 30 mins at room temperature, in the dark, with gentle shaking. […] Plates were read on an Envision plate reader (Perkin Elmer) after 1 hr and ˜16hrs incubation. cAMP concentration in the cells was determined by the use of a ‘standard curve’ generated from the output of known cAMP concentrations as described below. […]

human MC5R [4] = target: T5, human MC5R; test: cAMP assay, antagonism of alpha-MSH, HEK 293 cells expressing human MC5R; type: cell-based; settings: antagonism of 10^−6 M alpha-MSH
Experimental: as §4, §5

sebum excretion = settings: oral, after 8-12 weeks of therapy; cited from earlier work
[5] = hMC5R binding, tested as trifluoroacetate or hydrochloride salts, or free bases, read-out: MC5R radioligand IC50

T4 sequence (P33032 whole entry): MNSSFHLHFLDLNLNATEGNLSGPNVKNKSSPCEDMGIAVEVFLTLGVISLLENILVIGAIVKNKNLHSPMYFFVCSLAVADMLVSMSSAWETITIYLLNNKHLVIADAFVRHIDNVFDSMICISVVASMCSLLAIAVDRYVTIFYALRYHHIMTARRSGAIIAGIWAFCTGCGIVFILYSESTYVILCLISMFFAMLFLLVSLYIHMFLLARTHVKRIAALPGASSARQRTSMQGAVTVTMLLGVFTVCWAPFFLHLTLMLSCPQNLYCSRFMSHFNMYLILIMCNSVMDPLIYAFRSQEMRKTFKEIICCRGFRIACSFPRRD
Sequence of hMC4R (P32245 whole entry): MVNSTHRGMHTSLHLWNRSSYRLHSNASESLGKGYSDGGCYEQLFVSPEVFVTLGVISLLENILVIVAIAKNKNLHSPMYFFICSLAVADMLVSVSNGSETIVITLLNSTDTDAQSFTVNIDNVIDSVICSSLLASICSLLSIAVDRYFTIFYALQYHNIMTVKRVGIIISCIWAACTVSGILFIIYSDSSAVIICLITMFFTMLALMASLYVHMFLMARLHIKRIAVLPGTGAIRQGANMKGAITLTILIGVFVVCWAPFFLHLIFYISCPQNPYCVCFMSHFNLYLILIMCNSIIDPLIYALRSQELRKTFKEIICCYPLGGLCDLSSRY
T5 sequence (P33032 whole entry): as the sequence (P33032 whole entry) above
Sequence of hMC1R (Q01726 whole entry): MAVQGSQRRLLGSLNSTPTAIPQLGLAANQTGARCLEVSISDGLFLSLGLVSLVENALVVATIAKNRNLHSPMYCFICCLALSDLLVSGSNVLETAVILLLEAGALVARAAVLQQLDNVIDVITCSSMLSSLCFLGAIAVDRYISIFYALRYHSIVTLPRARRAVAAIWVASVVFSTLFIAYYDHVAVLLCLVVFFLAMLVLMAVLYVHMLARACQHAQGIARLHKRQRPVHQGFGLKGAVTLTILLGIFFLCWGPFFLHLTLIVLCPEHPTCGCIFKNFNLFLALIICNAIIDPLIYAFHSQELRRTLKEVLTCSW
T3 sequence (A0A5F8AEA9 1-325): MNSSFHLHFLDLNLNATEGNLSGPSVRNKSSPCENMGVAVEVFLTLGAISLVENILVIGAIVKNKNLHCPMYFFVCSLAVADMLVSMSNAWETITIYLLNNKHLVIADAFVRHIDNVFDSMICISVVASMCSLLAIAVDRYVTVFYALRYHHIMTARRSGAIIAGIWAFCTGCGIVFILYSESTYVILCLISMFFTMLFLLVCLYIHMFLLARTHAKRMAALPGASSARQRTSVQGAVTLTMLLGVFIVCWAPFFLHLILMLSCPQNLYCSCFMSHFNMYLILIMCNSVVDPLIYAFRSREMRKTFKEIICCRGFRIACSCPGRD
T2 sequence (A0A5F8AEA9 1-325): as above
Sequence of hMC3R (P41968 whole entry): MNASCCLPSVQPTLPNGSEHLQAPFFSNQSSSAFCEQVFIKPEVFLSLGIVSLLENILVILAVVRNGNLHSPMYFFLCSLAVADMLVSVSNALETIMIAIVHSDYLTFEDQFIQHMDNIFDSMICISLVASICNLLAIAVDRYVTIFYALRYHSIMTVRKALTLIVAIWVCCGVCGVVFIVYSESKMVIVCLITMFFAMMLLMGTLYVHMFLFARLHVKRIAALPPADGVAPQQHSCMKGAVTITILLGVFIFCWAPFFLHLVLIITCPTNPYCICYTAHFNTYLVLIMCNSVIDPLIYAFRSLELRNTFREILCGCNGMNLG
T1 sequence (P41149 whole entry): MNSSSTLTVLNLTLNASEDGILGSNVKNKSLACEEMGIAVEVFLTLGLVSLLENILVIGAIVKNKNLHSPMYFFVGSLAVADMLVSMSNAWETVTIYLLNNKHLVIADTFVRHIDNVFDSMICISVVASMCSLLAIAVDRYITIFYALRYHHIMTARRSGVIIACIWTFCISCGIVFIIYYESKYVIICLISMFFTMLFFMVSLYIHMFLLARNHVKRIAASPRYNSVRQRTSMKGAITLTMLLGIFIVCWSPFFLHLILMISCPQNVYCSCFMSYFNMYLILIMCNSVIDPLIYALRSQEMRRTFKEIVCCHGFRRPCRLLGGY

IC50 (human MC5R (hMC5R); [5]) [µM]	Compound	further results
< 1	CCC(CC)CN1CC[C@@H](CNC(=O)/C=C/c2ccc(Cl)cc2)N[C@@H](CCN2CCCCC2)C1=O [Compound 331, (E)-3-(4-chlorophenyl)-N-(((3S,5S)-1-(2-ethylbutyl)-2-oxo-3-(2-(piperidin-1-yl)ethyl)-1,4-diazepan-5-yl)methyl)acrylamide]	IC50 (human MC5R (hMC5R); hMCR binding selectivity, [125I] NDP-MSH, membranes, read-out: human MC5R IC50): 0.15 µM; IC50 (hMC3R): 1.83 µM; EC50 (human MC5R [3]): > 10 µM; IC50 (human MC5R [4]): 0.094 µM
< 1	CC[C@H](CN1CC[C@@H](CNC(=O)c2ccc(Cl)c(Cl)c2)N[C@@H](CN2CCCCC2)C1=O)c1ccccc1 [Compound 416, 3,4-dichloro-N-(((3S,5S)-2-oxo-1-((S)-2-phenylbutyl)-3-(piperidin-1-ylmethyl)-1,4-diazepan-5-yl)methyl)benzamide]	–
< 0.1	NCC[C@@H]1N[C@H](CNC(=O)c2ccc3cc(Cl)ccc3c2)CCN(Cc2cc(Cl)cc(Cl)c2)C1=O [Compound 466, N-(((3S,5S)-3-(2-aminoethyl)-1-(3,5-dichlorobenzyl)-2-oxo-1,4-diazepan-5-yl)methyl)-6-chloro-2-naphthamide]	–
< 0.1	CC(C)NCC[C@@H]1N[C@H](CNC(=O)c2ccc(Cl)c(Cl)c2)CCN(Cc2cc(Cl)cc(Cl)c2)C1=O [Compound 439, 3,4-dichloro-N-(((3S,5S)-1-(3,5-dichlorobenzyl)-3-(2-(isopropylamino)ethyl)-2-oxo-1,4-diazepan-5-yl)methyl)benzamide]	–
< 0.01	CC[C@@H](CN1CC[C@@H](CNC(=O)c2ccc3cc(Cl)ccc3c2)N[C@@H](CCN2CCCCC2)C1=O)c1ccccc1 [Compound 526, 6-chloro-N-(((3S,5S)-2-oxo-1-((R)-2-phenylbutyl)-3-(2-(piperidin-1-yl)ethyl)-1,4-diazepan-5-yl)methyl)-2-naphthamide]	–
< 0.1	O=C(NC[C@@H]1CCN(Cc2cc(Cl)cc(Cl)c2)C(=O)[C@H](CCN2CCCCC2)N1)c1ccc2cc(Cl)ccc2c1 [Compound 467, 6-chloro-N-(((3S,5S)-1-(3,5-dichlorobenzyl)-2-oxo-3-(2-(piperidin-1-yl)ethyl)-1,4-diazepan-5-yl)methyl)-2-naphthamide]	–
< 0.01	CC[C@H](CN1CC[C@@H](CNC(=O)c2ccc(Cl)c(Cl)c2)N[C@@H](CCN(C)Cc2ccccc2)C1=O)c1ccccc1 [Compound 442, N-(((3S,5S)-3-(2-(benzyl(methyl)amino)ethyl)-2-oxo-1-((S)-2-phenylbutyl)-1,4-diazepan-5-yl)methyl)-3,4-dichlorobenzamide]	–
< 10	NCC[C@@H]1N[C@H](CNC(=O)c2cccc(C(F)(F)F)c2)CCN(CC(c2ccccc2)c2ccccc2)C1=O [Compound 437, N-(((3S,5S)-3-(2-aminoethyl)-1-(2,2-diphenylethyl)-2-oxo-1,4-diazepan-5-yl)methyl)-3-(trifluoromethyl)benzamide]	–
< 1	NCC[C@@H]1N[C@H](CNC(=O)/C=C/c2ccc(F)cc2F)CCN(CC(c2ccccc2)c2ccccc2)C1=O [Compound 401, (E)-N-(((3S,5S)-3-(2-aminoethyl)-1-(2,2-diphenylethyl)-2-oxo-1,4-diazepan-5-yl)methyl)-3-(2,4-difluorophenyl)acrylamide]	–
< 1	CC[C@H](CN1CC[C@@H](CNC(=O)c2ccc3ccccc3c2)N[C@@H](CCCN)C1=O)c1ccccc1 [Compound 385, N-(((3S,5S)-3-(3-aminopropyl)-2-oxo-1-((S)-2-phenylbutyl)-1,4-diazepan-5-yl)methyl)-2-naphthamide]	–
< 1	CC[C@H](CN1CC[C@@H](CNC(=O)c2ccc3ccccc3c2)N[C@@H](CCN)C1=O)c1ccccc1 [Compound 389, N-(((3S,5S)-3-(2-aminoethyl)-2-oxo-1-((S)-2-phenylbutyl)-1,4-diazepan-5-yl)methyl)-2-naphthamide]	–

Further lines, the molecule ahead of its results:

Compound	IC50 (human MC5R (hMC5R); [5]) [µM]	further results
N=C(N)NCCC[C@@H]1N[C@H](CNC(=O)c2ccc3ccccc3c2)CCN(CC(c2ccccc2)c2ccccc2)C1=O [Compound 105, N-(((3S,5S)-1-(2,2-diphenylethyl)-3-(3-guanidinopropyl)-2-oxo-1,4-diazepan-5-yl)methyl)-2-naphthamide]	–	IC50 (mouse MC5R (membrane)): 4 µM; IC50 [1]: 6.03 µM; IC50 [2]: 3 µM; IC50 (hMC1R): 6.66 µM; IC50 (hMC4R): 3.28 µM
O=C(NC[C@@H]1CCN(CC(c2ccccc2)c2ccccc2)C(=O)[C@H](CCCN2CCCCC2)N1)c1ccc2ccccc2c1 [Compound 64, N-(((3S,5S)-1-(2,2-diphenylethyl)-2-oxo-3-(3-(piperidin-1-yl)propyl)-1,4-diazepan-5-yl)methyl)-2-naphthamide]	–	IC50 [1]: 7.31 µM; IC50 [2]: > 5 µM
CC1=C(/C=C/C(C)=C/C=C/C(C)=C\C(=O)O)C(C)(C)CCC1 [isotretinoin]	–	reduction of sebum excretion (sebum excretion): up to 90%
N=C(N)NCCC[C@@H]1N[C@H](CNC(=O)c2ccc(-c3ccccc3)cc2)CCN(CC(c2ccccc2)c2ccccc2)C1=O [Compound 108, N-(((3S,5S)-1-(2,2-diphenylethyl)-3-(3-guanidinopropyl)-2-oxo-1,4-diazepan-5-yl)methyl)biphenyl-4-carboxamide]	< 0.1	–
N=C(N)NCCC[C@@H]1N[C@H](CNC(=O)c2ccc3ccccc3c2)CCN(CCc2ccc3ccccc3c2)C1=O [Compound 264, N-(((3S,5S)-3-(3-guanidinopropyl)-1-(2-(naphthalen-2-yl)ethyl)-2-oxo-1,4-diazepan-5-yl)methyl)-2-naphthamide]	< 10	–
O=C(/C=C/c1ccc(Cl)cc1)NC[C@@H]1CCN(CC(c2ccccc2)c2ccccc2)C(=O)[C@H](CCCN2CCCC2)N1 [Compound 258, (E)-3-(4-chlorophenyl)-N-(((3S,5S)-1-(2,2-diphenylethyl)-2-oxo-3-(3-(pyrrolidin-1-yl)propyl)-1,4-diazepan-5-yl)methyl)acrylamide]	< 0.1	–
O=C(/C=C/c1ccc(Cl)cc1)NC[C@@H]1CCN(CC(c2ccccc2)c2ccccc2)C(=O)[C@H](CCN2CCCCC2)N1 [Compound 33, (E)-3-(4-chlorophenyl)-N-(((3S,5S)-1-(2,2-diphenylethyl)-2-oxo-3-(2-(piperidin-1-yl)ethyl)-1,4-diazepan-5-yl)methyl)acrylamide]	–	IC50 (hMC1R): 2.85 µM; IC50 (hMC3R): 1.5 µM; IC50 (hMC4R): 6.06 µM
NCCC[C@@H]1N[C@H](CNC(=O)c2ccc3cc(Br)ccc3c2)CCN(CC(c2ccccc2)c2ccccc2)C1=O [Compound 211, N-(((3S,5S)-3-(3-aminopropyl)-1-(2,2-diphenylethyl)-2-oxo-1,4-diazepan-5-yl)methyl)-6-bromo-2-naphthamide]	< 0.1	–
